According to patent US20180030500A1, “ENRICHMENT AND SELECTIVE CULTURE OF MYCOBACTERIA” (priority 2015, published 2018):
Read-outs that look alike come from different tables or passages of the source.

How the values were obtained:
Enterobacteria = details: 7 strains, 7 days
[1] = system: Burkholderia multivorans (672832Y); assay: Sensitivity to C-390 in medium W; format: cell-based; design: key: NG: no growth; Tr: traces
Experimental: (§1) An evaluation of the sensitivity to C-390 of various microorganisms capable of infecting the airways was carried out. This evaluation was carried out using medium W of example 4, containing a variable concentration of C-390. Table 10 below collates the observations collected with regard to the intensity of growth of the strains tested as a function of the C-390 concentration of the medium. The abbreviations NG (“no growth”) and Tr (“traces”) signify that no growth was observed or only a few not very significant traces.

[2] = system: Burkholderia multivorans (645914C); assay: Sensitivity to C-390 in medium W; format: cell-based; design: key: NG: no growth; Tr: traces
Experimental: as §1

[3] = system: Burkholderia cenocepacia (LMG 18830); assay: Sensitivity to C-390 in medium W; format: cell-based; design: key: NG: no growth; Tr: traces; details: C-390 32 mg/l in medium W
Experimental: as §1

[4] = system: Burkholderia cepacia (LMG 18821); assay: Sensitivity to C-390 in medium W; format: cell-based; design: key: NG: no growth; Tr: traces
Experimental: as §1

[5] = system: Burkholderia cepacia (LMG 1222); assay: Sensitivity to C-390 in medium W; format: cell-based; design: key: NG: no growth; Tr: traces
Experimental: as §1

[6] = system: Burkholderia multivorans (LMG 18824); assay: Sensitivity to C-390 in medium W; format: cell-based; design: key: NG: no growth; Tr: traces
Experimental: as §1

[7] = system: Burkholderia gladioli (ENV); assay: Sensitivity to C-390 in medium W; format: cell-based; design: key: NG: no growth; Tr: traces
Experimental: as §1

[8] = system: Burkholderia pyrrocinia (LMG 21824); assay: Sensitivity to C-390 in medium W; format: cell-based; design: key: NG: no growth; Tr: traces
Experimental: as §1

[9] = system: Aspergillus terreus (Anon); assay: Sensitivity to C-390 in medium W; format: cell-based; design: key: NG: no growth; Tr: traces
Experimental: as §1

Aspergillus flavus (ENV) = assay: Sensitivity to C-390 in medium W; format: cell-based; design: key: NG: no growth; Tr: traces
Experimental: as §1

[10] = system: Burkholderia dolosa (LMG21820); assay: Sensitivity to C-390 in medium W; format: cell-based; design: key: NG: no growth; Tr: traces
Experimental: as §1

[11] = system: Aspergillus fumigatus (Anon); assay: Sensitivity to C-390 in medium W; format: cell-based; design: key: NG: no growth; Tr: traces
Experimental: as §1

[12] = system: Burkholderia anthina (20983); assay: Sensitivity to C-390 in medium W; format: cell-based; design: key: NG: no growth; Tr: traces
Experimental: as §1

[13] = system: Burkholderia vietnamiensis (LMG 18835); assay: Sensitivity to C-390 in medium W; format: cell-based; design: key: NG: no growth; Tr: traces
Experimental: as §1

[14] = system: Burkholderia cenocepacia (672834P); assay: Sensitivity to C-390 in medium W; format: cell-based; design: key: NG: no growth; Tr: traces
Experimental: as §1

[15] = system: Burkholderia vietnamiensis (744978N); assay: Sensitivity to C-390 in medium W; format: cell-based; design: key: NG: no growth; Tr: traces
Experimental: as §1

Pseudomonas aeruginosa = details: 50 strains, 7 days
Gram-positive bacteria = details: 10 strains, 7 days
[16] = selective agent 32 mg/l in medium L
[17] = selective agent 64 mg/l in medium L
[18] = selective agent 128 mg/l in medium L

With `CCN(CC)c1ccc(C2(Cl)c3ccccc3N(c3ccccc3)c3ccccc32)cc1` [Medium C-390, 9-chloro-9-(4′-diethylamino)phenyl-9,10-dihydro-10-phenylacridine] the “Number of strains having shown growth” value (Enterobacteria; [16]) was 0, the “Number of strains having shown growth” value (Enterobacteria; [17]) was 0 and the “Number of strains having shown growth” value (Enterobacteria; [18]) was 0. The intensity of growth ([1]; C-390 4 mg/l in medium W) was “Tr”, the intensity of growth ([1]; C-390 8 mg/l in medium W) was “NG” and the intensity of growth ([1]; C-390 16 mg/l in medium W) was “NG”. For the same compound, the intensity of growth ([1]; C-390 32 mg/l in medium W) was “NG”, the intensity of growth ([2]; C-390 2 mg/l in medium W) was “NG” and the intensity of growth ([2]; C-390 4 mg/l in medium W) was “NG”. The intensity of growth ([2]; C-390 8 mg/l in medium W) was “NG”, the intensity of growth ([2]; C-390 16 mg/l in medium W) was “NG” and the intensity of growth ([2]; C-390 32 mg/l in medium W) was “NG”. For the same compound, the intensity of growth [3] was “NG”, the intensity of growth ([4]; C-390 16 mg/l in medium W) was “NG” and the intensity of growth ([4]; C-390 32 mg/l in medium W) was “NG”. The intensity of growth ([5]; C-390 2 mg/l in medium W) was “Tr”, the intensity of growth ([5]; C-390 4 mg/l in medium W) was “NG” and the intensity of growth ([5]; C-390 8 mg/l in medium W) was “NG”. The intensity of growth ([5]; C-390 16 mg/l in medium W) was “NG”, the intensity of growth ([5]; C-390 32 mg/l in medium W) was “NG” and the intensity of growth ([6]; C-390 4 mg/l in medium W) was “NG”. The intensity of growth ([6]; C-390 8 mg/l in medium W) was “NG”, the intensity of growth ([6]; C-390 16 mg/l in medium W) was “NG” and the intensity of growth ([6]; C-390 32 mg/l in medium W) was “NG”. The intensity of growth ([7]; C-390 16 mg/l in medium W) was “NG”, the intensity of growth ([7]; C-390 32 mg/l in medium W) was “NG” and the intensity of growth ([8]; C-390 4 mg/l in medium W) was “NG”. For the same compound, the intensity of growth ([8]; C-390 8 mg/l in medium W) was “NG”, the intensity of growth ([8]; C-390 16 mg/l in medium W) was “NG” and the intensity of growth ([8]; C-390 32 mg/l in medium W) was “NG”. For the same compound, the intensity of growth ([9]; C-390 1 mg/l in medium W) was “NG”, the intensity of growth ([9]; C-390 2 mg/l in medium W) was “NG” and the intensity of growth ([9]; C-390 4 mg/l in medium W) was “NG”. The intensity of growth ([9]; C-390 8 mg/l in medium W) was “NG”, the intensity of growth ([9]; C-390 16 mg/l in medium W) was “NG” and the intensity of growth ([9]; C-390 32 mg/l in medium W) was “NG”. The intensity of growth (Aspergillus flavus (ENV); C-390 8 mg/l in medium W) was “NG”, the intensity of growth (Aspergillus flavus (ENV); C-390 16 mg/l in medium W) was “NG” and the intensity of growth (Aspergillus flavus (ENV); C-390 32 mg/l in medium W) was “NG”. For the same compound, the intensity of growth ([10]; C-390 1 mg/l in medium W) was “Tr”, the intensity of growth ([10]; C-390 2 mg/l in medium W) was “NG” and the intensity of growth ([10]; C-390 4 mg/l in medium W) was “NG”. For the same compound, the intensity of growth ([10]; C-390 8 mg/l in medium W) was “NG”, the intensity of growth ([10]; C-390 16 mg/l in medium W) was “NG” and the intensity of growth ([10]; C-390 32 mg/l in medium W) was “NG”. The intensity of growth ([11]; C-390 0.5 mg/l in medium W) was “Tr”, the intensity of growth ([11]; C-390 1 mg/l in medium W) was “NG” and the intensity of growth ([11]; C-390 2 mg/l in medium W) was “NG”. For the same compound, the intensity of growth ([11]; C-390 4 mg/l in medium W) was “NG”, the intensity of growth ([11]; C-390 8 mg/l in medium W) was “NG” and the intensity of growth ([11]; C-390 16 mg/l in medium W) was “NG”. The intensity of growth ([11]; C-390 32 mg/l in medium W) was “NG”, the intensity of growth ([12]; C-390 1 mg/l in medium W) was “Tr” and the intensity of growth ([12]; C-390 2 mg/l in medium W) was “NG”. The intensity of growth ([12]; C-390 4 mg/l in medium W) was “NG”, the intensity of growth ([12]; C-390 8 mg/l in medium W) was “NG” and the intensity of growth ([12]; C-390 16 mg/l in medium W) was “NG”. For the same compound, the intensity of growth ([12]; C-390 32 mg/l in medium W) was “NG”, the intensity of growth ([13]; C-390 1 mg/l in medium W) was “NG” and the intensity of growth ([13]; C-390 2 mg/l in medium W) was “NG”. For the same compound, the intensity of growth ([13]; C-390 4 mg/l in medium W) was “NG”, the intensity of growth ([13]; C-390 8 mg/l in medium W) was “NG” and the intensity of growth ([13]; C-390 16 mg/l in medium W) was “NG”. The intensity of growth ([13]; C-390 32 mg/l in medium W) was “NG”, the intensity of growth ([14]; C-390 8 mg/l in medium W) was “NG” and the intensity of growth ([14]; C-390 16 mg/l in medium W) was “NG”. The intensity of growth ([14]; C-390 32 mg/l in medium W) was “NG”, the intensity of growth ([15]; C-390 1 mg/l in medium W) was “Tr” and the intensity of growth ([15]; C-390 2 mg/l in medium W) was “NG”. For the same compound, the intensity of growth ([15]; C-390 4 mg/l in medium W) was “NG”, the intensity of growth ([15]; C-390 8 mg/l in medium W) was “NG” and the intensity of growth ([15]; C-390 16 mg/l in medium W) was “NG”. For the same compound, the intensity of growth ([15]; C-390 32 mg/l in medium W) was “NG”, the “Number of strains having shown growth” value (Pseudomonas aeruginosa; [16]) was 46 and the “Percentage of strains having shown growth” value (from here on “Percentage”) (Pseudomonas aeruginosa; [16]) was “(92%)”. The “Number of strains having shown growth” value (Pseudomonas aeruginosa; [17]) was 45, the “Percentage” value (Pseudomonas aeruginosa; [17]) was “(90%)” and the “Number of strains having shown growth” value (Pseudomonas aeruginosa; [18]) was 35. The “Percentage” value (Pseudomonas aeruginosa; [18]) was “(70%)”, the “Number of strains having shown growth” value (Gram-positive bacteria; [16]) was 0 and the “Number of strains having shown growth” value (Gram-positive bacteria; [17]) was 0. The “Number of strains having shown growth” value (Gram-positive bacteria; [18]) was 0.
